Experimental data: patent US20230150932A1, “COMPOSITIONS FOR STABILIZING AN ISOTHIOCYANATE” (VIO CHEMICALS AG, priority 2020, published 2023)

Assays:
[1] = left on bench for 6 months; HPLC
Text: In order to determine the structure of the major degradation impurity found in the present study (RRT 0.76) a sample of synthetically produced Sulforaphane was left on bench for 6 months.

[2] = Stability study by HPLC, storage under Conditions A (bench, 20-25° C.); type: physicochemical; conditions: Conditions A 20-25° C.; for RRT 0.96: impurity; for RRT 0.76: thiourea degradation impurity
Method: (§1) The storage conditions studied in the present invention are of three types:
(§2) In all three above types of conditions, the storage media is a simple dark glass vial or round-bottomed flask. Each sample is blown with Argon before securing the cap. No further treatment regarding the atmosphere is performed. The vial is capped and secured by use of a commercially available appropriate means for sealing the cap, e.g. Parafilm. The storage media is not restrictive with respect to the present invention.
(§3) The Sulforaphane formulations were analyzed with HPLC (PDA/UV at 240 nm) using standards for identification and quantification purpose.
(§4) Take 1 mL of H3PO4 into a 1 L volumetric flask containing about 500 mL of water, dilute to the volume with water and mix well/Acetonitrile.
(§5) Transfer accurately about 20 mg of sample in to a 20 mL clean and dry volumetric flask. Dilute to the volume with diluent.
(§6) Sulphoraphane retention time is about 20 mins
(§7) Conditions A: bench (20-25° C.) Conditions B: fridge, 2-8° C. Conditions C: fridge-freezer, (−15) ° C.

[3] = diluted in water, heated at 80° C. for 24 hrs; HPLC
[4] = Stability study by HPLC, storage under Conditions C (fridge-freezer, -15° C.); type: physicochemical; conditions: Conditions C -15° C.; for RRT 0.96: impurity; for RRT 0.76: thiourea degradation impurity
Method: as §1, §2, §3, §4, §5, §6, §7

## C[S+]([O-])CCCCN=C=S (stereo not drawn) [Comparative Example 3, 4-(methylsulfinyl)butylisothiocyanate]
[1]
  percentage of impurity RRT 0.76: about 74.8%
[2]; 1 month
  Sulfone: 1.31
  Sulforaphane: 36.35
  RRT 0.96: 3.88
  RRT 0.76: 29.16
[2]; 2 months
  Sulfone: 0.84
  Sulforaphane: 24.51
  RRT 0.96: 3.95
  RRT 0.76: 34.37
[2]; 3 months
  Sulfone: 0.78
  Sulforaphane: 19.98
  RRT 0.96: 4.11
  RRT 0.76: 38.38
[2]; 7 days
  Sulfone: 2.32
  Sulforaphane: 65.48
  RRT 0.96: 2.62
  RRT 0.76: 15.87
[2]; 15 days
  Sulfone: 1.92
  Sulforaphane: 53.28
  RRT 0.96: 3.20
  RRT 0.76: 21.61
[2]; zero time
  Sulfone: 3.40
  Sulforaphane: 94.74
  RRT 0.96: 0.15
  RRT 0.76: 0.01
[3]
  impurity RRT 0.76 detected (chromatographic purity): more than 93%
[4]; 1 month
  Sulfone: 3.4
  Sulforaphane: 94.27
  RRT 0.96: 0.23
  RRT 0.76: 0.25
[4]; 2 months
  Sulfone: 3.42
  Sulforaphane: 94.43
  RRT 0.96: 0.25
  RRT 0.76: 0.27
[4]; 3 months
  Sulfone: 3.44
  Sulforaphane: 94.51
  RRT 0.96: 0.51
  RRT 0.76: 0.23
[4]; 7 days
  Sulfone: 3.38
  Sulforaphane: 95.21
  RRT 0.96: 0.15
[4]; 15 days
  Sulforaphane: 97.23
  RRT 0.96: 0.03
  RRT 0.76: 0.62
[4]; zero time
  Sulfone: 3.40
  Sulforaphane: 94.74
  RRT 0.96: 0.15
  RRT 0.76: 0.01
